Patent publication US20150361087A1, “ANTIVIRAL COMPOUNDS” (Gilead Sciences, Inc., priority 2014, published 2015)
Read-outs that look alike come from different tables or passages of the source.

Tests used:
[1] = test system: HCV 1b RLuc replicon cells (genotype 1b Conl replicon); test: Renilla luciferase HCV replicon reporter assay, genotype 1b; type: cell-based; conditions: stable replicon cells, 72 hours, RLuc readout
Description: (§1) Evaluation of cell-based anti-HCV activity: Antiviral potency (EC50) was determined using a Renilla luciferase (RLuc)-based HCV replicon reporter assay. To perform the assay for genotype 1 and 2a JFH-1, stable HCV 1a RLuc replicon cells (harboring a dicistronic genotype 1a H77 replicon that encodes a RLuc reporter), stable HCV 1b RLuc replicon cells (harboring a dicistronic genotype 1b Conl replicon that encodes a RLuc reporter), or stable HCV 2a JFH-1 Rluc replicon cells (harboring a dicistronic genotype 2a JFH-1 replicon that encodes a RLuc reporter; with L31 present in NS5A) were dispensed into 384-well plates for EC50 assays. To perform the assay for genotype 2a (with M31 present in NS5A) or 2b, NS5A chimeric genotype 2a JFH-1 replicons that encodes a RLuc-Neo reporter and either genotype 2a J6 strain NS5A gene or genotype 2b MD2b-1 strain NS5A gene (both with M31 present) respectively, were either transiently transfected (t) into Huh-Lunet cells or were established as stably replicating replicon cells (s) is provided. Either cells were dispensed into 384-well plates for EC50 assays. To perform the assay for genotype 3 and 4, NS5A chimeric genotype 1b Conl replicons that encodes a Pi-RLuc reporter and either genotype 3a S52 strain NS5A gene or genotype 4a ED43 strain NS5A gene respectively, were transiently transfected (t) into Huh-Lunet cells, which were subsequently dispensed into 384-well plates. Compounds were dissolved in DMSO at a concentration of 10 mM and diluted in DMSO either manually or using an automated pipeting instrument. Serially 3-fold diluted compounds were either manually mixed with cell culture media and added to the seeded cells or directly added to the cells using an automated instrument. DMSO was used as a negative (solvent; no inhibition) control, and the protease inhibitor ITMN-191 was included at a concentration >100×EC50 as a positive control. 72 hours later, cells were lysed and Renilla luciferase activity quantified as recommended by the manufacturer (Promega-Madison, Wis.). Non-linear regression was performed to calculate EC50 values.

[2] = test system: HCV 1a RLuc replicon cells (genotype 1a H77 replicon); test: Renilla luciferase HCV replicon reporter assay, genotype 1a; type: cell-based; conditions: stable replicon cells, 72 hours, RLuc readout
Description: as §1

[3] = test system: HCV 2a JFH-1 Rluc replicon cells (L31 present in NS5A); test: Renilla luciferase HCV replicon reporter assay, genotype 2a JFH-1; type: cell-based; conditions: stable replicon cells, 72 hours
Description: as §1

[4] = test system: NS5A chimeric genotype 2a JFH-1 replicon with genotype 2b MD2b-1 strain NS5A gene (M31); test: Renilla luciferase HCV replicon reporter assay, genotype 2b; type: cell-based
Description: as §1

[5] = test system: NS5A chimeric genotype 1b Conl replicon with genotype 3a S52 strain NS5A gene; test: Renilla luciferase HCV replicon reporter assay, genotype 3a; type: cell-based
Description: as §1

[6] = test system: NS5A chimeric genotype 1b Conl replicon with genotype 4a ED43 strain NS5A gene; test: Renilla luciferase HCV replicon reporter assay, genotype 4a; type: cell-based; conditions: Hepatitis C virus, 72 h, read-out: 4a (s) (nM)
Description: (§2) Evaluation of cell-based anti-HCV activity: Antiviral potency (EC50) was determined using a Renilla luciferase (RLuc)-based HCV replicon reporter assay. To perform the assay for genotype 1 and 2a JFH-1, stable HCV 1a RLuc replicon cells (harboring a dicistronic genotype 1a H77 replicon that encodes a RLuc reporter), stable HCV 1b RLuc replicon cells (harboring a dicistronic genotype 1b Conl replicon that encodes a RLuc reporter), or stable HCV 2a JFH-1 Rluc replicon cells (harboring a dicistronic genotype 2a JFH-1 replicon that encodes a RLuc reporter; with L31 present in NS5A) were dispensed into 384-well plates for EC50 assays. To perform the assay for genotype 2a (with M31 present in NS5A) or 2b, NS5A chimeric genotype 2a JFH-1 replicons that encodes a RLuc-Neo reporter and either genotype 2a J6 strain NS5A gene or genotype 2b MD2b-1 strain NS5A gene (both with M31 present) respectively, were either transiently transfected (t) into Huh-Lunet cells or were established as stably replicating replicon cells (s) is provided. Either cells were dispensed into 384-well plates for EC50 assays. […] 72 hours later, cells were lysed and Renilla luciferase activity quantified as recommended by the manufacturer (Promega-Madison, Wis.). […]

[7] = test system: Y93H in genotype 1a NS5A (1a Pi-Rluc replicon); test: Replicon assay against resistance mutant 1a Y93H; type: cell-based, HCV
Description: (§3) Evaluation of cell-based anti-HCV activity: Antiviral potency (EC50) was determined using a Renilla luciferase (RLuc)-based HCV replicon reporter assay. To perform the assay for genotype 1 and 2a JFH-1, stable HCV 1a RLuc replicon cells (harboring a dicistronic genotype 1a H77 replicon that encodes a RLuc reporter), stable HCV 1b RLuc replicon cells (harboring a dicistronic genotype 1b Conl replicon that encodes a RLuc reporter), or stable HCV 2a JFH-1 Rluc replicon cells (harboring a dicistronic genotype 2a JFH-1 replicon that encodes a RLuc reporter; with L31 present in NS5A) were dispensed into 384-well plates for EC50 assays. To perform the assay for genotype 2a (with M31 present in NS5A) or 2b, NS5A chimeric genotype 2a JFH-1 replicons that encodes a RLuc-Neo reporter and either genotype 2a J6 strain NS5A gene or genotype 2b MD2b-1 strain NS5A gene (both with M31 present) respectively, were either transiently transfected (t) into Huh-Lunet cells or were established as stably replicating replicon cells (s) is provided. Either cells were dispensed into 384-well plates for EC50 assays. To perform the assay for genotype 3 and 4, NS5A chimeric genotype 1b Conl replicons that encodes a Pi-RLuc reporter and either genotype 3a S52 strain NS5A gene or genotype 4a ED43 strain NS5A gene respectively, were transiently transfected (t) into Huh-Lunet cells, which were subsequently dispensed into 384-well plates. […] 72 hours later, cells were lysed and Renilla luciferase activity quantified as recommended by the manufacturer (Promega-Madison, Wis.). […]
(§4) To determine the antiviral potency (EC50) against resistance mutants, resistance mutations, including Q30R, Q30E, Y93H, and Y93N in genotype 1a NS5A, and L31V/Y93H in genotype 1b NS5A were introduced individually into either 1a Pi-Rluc or 1b Pi-Rluc replicons by site directed mutagenesis. Replicon RNA of each resistant mutant was transiently transfected into Huh-7-derived cured-51 cells and antiviral potency was determined on these transfected cells as described above.

[8] = test system: Y93N in genotype 1a NS5A (1a Pi-Rluc replicon); test: Replicon assay against resistance mutant 1a Y93N; type: cell-based, HCV
Description: as §3, §4

3a Y93H = test: Replicon assay against resistance mutant 3a Y93H; type: cell-based, HCV
[9] = biological target: NS5A chimeric genotype 2a JFH-1 replicon with genotype 2a J6 strain NS5A gene (M31); test: Renilla luciferase HCV replicon reporter assay, genotype 2a J6; type: cell-based; conditions: transiently transfected (t) into Huh-Lunet cells, 72 hours
Description: as §2

[10] = test system: L31V/Y93H in genotype 1b NS5A (1b Pi-Rluc replicon); test: Replicon assay against resistance mutant 1b L31V/Y93H; type: cell-based, HCV; conditions: transiently transfected Huh-7-derived cured-51 cells
Description: (§5) Evaluation of cell-based anti-HCV activity: Antiviral potency (EC50) was determined using a Renilla luciferase (RLuc)-based HCV replicon reporter assay. To perform the assay for genotype 1 and 2a JFH-1, stable HCV 1a RLuc replicon cells (harboring a dicistronic genotype 1a H77 replicon that encodes a RLuc reporter), stable HCV 1b RLuc replicon cells (harboring a dicistronic genotype 1b Conl replicon that encodes a RLuc reporter), or stable HCV 2a JFH-1 Rluc replicon cells (harboring a dicistronic genotype 2a JFH-1 replicon that encodes a RLuc reporter; with L31 present in NS5A) were dispensed into 384-well plates for EC50 assays. […] 72 hours later, cells were lysed and Renilla luciferase activity quantified as recommended by the manufacturer (Promega-Madison, Wis.). […]
as §4

[11] = test system: Q30E in genotype 1a NS5A (1a Pi-Rluc replicon); test: Replicon assay against resistance mutant 1a Q30E; type: cell-based, HCV; conditions: transiently transfected Huh-7-derived cured-51 cells
Description: as §5, §4

[12] = design: species or system Sprague-Dawley (SD) rats; conditions: in vivo
Description: IV and PO Single Dose Pharmacokinetic Studies in SD Rats: The pharmacokinetics of selected compounds was characterized in male Sprague-Dawley (SD) rats (250-300 g). In this study, two groups of naïve purebred SD rats (N=3 per group, fasted over night) received the selected compound either as an intravenous (IV) infusion (1 mg/kg over 30 minutes) via the jugular vein or by oral gavage (2 mg/kg). The intravenous (IV) dosing vehicle was 5% ethanol, 35% polyethylene glycol 400 (PEG 400) and 60% water pH 2.0. The oral dosing vehicle was 5% ethanol, 55% PEG 400 and 40% citrate buffer pH 2.2.
Serial blood samples (approximately 0.3 mL each) were collected from jugular vein or other suitable vein at specified time points. […]
A bioanalytical method utilizing high performance liquid chromatography coupled to tandem mass spectrometry (LC/MS/MS) was developed for analysis of the selected compound in rat plasma. Detection was performed using selected reaction monitoring (SRM); Ions representing the precursor (M+H) ^+ species was selected in quadrupole 1 (Q1) and collided with argon gas in the collision cell (Q2) to generate specific product ion, which was subsequently monitored by quadrupole 3 (Q3). Standard curve and quality control samples were prepared in male rat plasma and processed in the same way as the test samples to generate quantitative data. […]

[13] = Hepatitis C virus, 72 h, read-out: 2b (s) (nM)
[14] = Hepatitis C virus, 72 h, read-out: 3a (nM)
[15] = Hepatitis C virus, read-out: 1a Y93H (nM)
[16] = Hepatitis C virus, read-out: 1a Y93N (nM)
[17] = Hepatitis C virus, read-out: 3a Y93H (nM)

Compound: COC(=O)N[C@H](C(=O)N1CCC[C@H]1c1ncc(-c2cc3c4c(c2)OCc2cc(-c5cnc([C@@H]6CCCN6C(=O)[C@@H](NC(=O)OC)C6C[C@@H](C)O[C@H](C)C6)[nH]5)cc(c2-4)OC3)[nH]1)C1C[C@@H](C)O[C@H](C)C1 (stereo partly drawn) [Compound 15, dimethyl ((1S,1′S)-((2S,2′S)-((5,10-dihydrochromeno [5,4,3-cde]chromene-2,7-diyl)bis(1H-imidazole-5,2-diyl))bis(pyrrolidine-2,1-diyl))bis(1-((2R,6R)-2,6-dimethyltetrahydro-2H-pyran-4-yl)-2-oxoethane-2,1-diyl))dicarbamate]
- EC50 ([1]; Hepatitis C virus): 0.195 nM
- EC50 ([2]; Hepatitis C virus): 0.18 nM
- EC50 ([3]; Hepatitis C virus): 0.024 nM
- EC50 [4, 13]: 0.143 nM
- EC50 [5, 14]: 0.199 nM
- EC50 [6]: 0.07 nM
- EC50 [7, 15]: 0.237 nM
- EC50 [8, 16]: 0.87 nM
- EC50 (3a Y93H; [17]): 0.361 nM

Compound: COC(=O)N[C@H](C(=O)N1[C@@H](C)CC[C@H]1c1ncc(-c2cc3c4c(c2)OCc2cc(-c5cnc([C@@H]6CC[C@H](C)N6C(=O)[C@@H](NC(=O)OC)C6C[C@@H](C)O[C@H](C)C6)[nH]5)cc(c2-4)OC3)[nH]1)C1C[C@@H](C)O[C@H](C)C1 (stereo partly drawn) [Compound 14, dimethyl (R,R,1S,1′S)-2,2′-((2S,2′S,5S,5′S)-5,5′-(5,5′-(5,10-dihydrochromeno[5,4,3-cde]chromene-2,7-diyl)bis(1H-imidazole-5,2-diyl))bis(2-methylpyrrolidine-5,1-diyl))bis(1-((2R,6R)-2,6-dimethyltetrahydro-2H-pyran-4-yl)-2-oxoethane-2,1-diyl)dicarbamate]
- EC50 [1]: 0.054 nM
- EC50 [2]: 0.049 nM
- EC50 [3]: 0.011 nM
- EC50 [9]: 0.014 nM
- EC50 ([4]; transiently transfected (t) into Huh-Lunet cells, 72 hours, read-out: 2b (t)): 0.038 nM
- EC50 ([5]; transiently transfected into Huh-Lunet cells, 72 hours, read-out: 3a): 0.04 nM
- EC50 [10]: 0.075 nM
- EC50 [11]: 0.11 nM
- EC50 ([7]; transiently transfected Huh-7-derived cured-51 cells, read-out: 1a Y93H): 0.063 nM
- EC50 ([8]; transiently transfected Huh-7-derived cured-51 cells, read-out: 1a Y93N): 0.229 nM
- EC50 (3a Y93H; resistance mutant replicon, read-out: 3a Y93H): 0.157 nM
- Rat % F [12]: 15%

Compound: COC(=O)N[C@H](C(=O)N1[C@@H](C)CC[C@H]1c1ncc(-c2cc3c4c(c2)OCc2cc(-c5cnc([C@@H]6CC[C@H](C)N6C(=O)[C@@H](NC(=O)OC)[C@H]6C[C@@H](C)O[C@@H](C)C6)[nH]5)cc(c2-4)OC3)[nH]1)C1C[C@@H](C)O[C@@H](C)C1 (stereo partly drawn) [Compound 16, dimethyl (r,S,R,1S,1′S)-2,2′-((2S,2′S,5S,5′S)-5,5′-(5,5′-(5,10-dihydrochromeno[5,4,3-cde]chromene-2,7-diyl)bis(1H-imidazole-5,2-diyl))bis(2-methylpyrrolidine-5,1-diyl))bis(1-((2R,4r,6S)-2,6-dimethyltetrahydro-2H-pyran-4-yl)-2-oxoethane-2,1-diyl)dicarbamate]
- EC50 ([1]; Hepatitis C virus): 0.037 nM
- EC50 ([2]; Hepatitis C virus): 0.043 nM
- EC50 ([3]; Hepatitis C virus): 0.013 nM
- EC50 [4, 13]: 0.054 nM
- EC50 [5, 14]: 0.051 nM
- EC50 [6]: 0.025 nM
- EC50 [7, 15]: 0.356 nM
- EC50 [8, 16]: 0.685 nM
- EC50 (3a Y93H; [17]): 0.145 nM
